Measurements published in ChEMBL document CHEMBL1201862, “PubChem BioAssay data set” (2004).
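Protocol summary: plate cells (96-well), add compound at 5 concentrations, incubate 48 h, interpolate endpoints linearly. GI50 = concentration required for 50% inhibition of growth.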 Active and inactive are the calls of the source. No stated cut-off is given here; in the data, active = GI50 up to about 1.1 µM and inactive = higher.

Columns and labels:
Assay in all cases: inhibition of tumour cell growth, NCI panel, 48 h
Malme-3M = system: Malme-3M
SF-295 = system: SF-295
CAKI-1 = system: CAKI-1
NCI-H23 = system: NCI-H23
HOP-62 = system: HOP-62
UACC-257 = system: UACC-257
PC-3 = system: PC-3
SW-620 = system: SW-620
MDA-MB-231 = system: MDA-MB-231
SF-268 = system: SF-268
SK-MEL-2 = system: SK-MEL-2
786-0 = system: 786-0
IGROV-1 = system: IGROV-1
OVCAR-3 = system: OVCAR-3
HL-60 = system: HL-60
SNB-19 = system: SNB-19
Hs-578T = system: Hs-578T
HCT-116 = system: HCT-116
UACC-62 = system: UACC-62
OVCAR-4 = system: OVCAR-4
K562 = system: K562
EKVX = system: EKVX
MCF7 = system: MCF7
MDA-MB-435 = system: MDA-MB-435
OVCAR-5 = system: OVCAR-5
NCI/ADR-RES = system: NCI/ADR-RES
DU-145 = system: DU-145
SF-539 = system: SF-539
T47D = system: T47D
RPMI-8226 = system: RPMI-8226
A498 = system: A498
U-251 = system: U-251
SR = system: SR
CCRF-CEM = system: CCRF-CEM
UO-31 = system: UO-31
SK-OV-3 = system: SK-OV-3
SNB-75 = system: SNB-75
NCI-H522 = system: NCI-H522
COLO 205 = system: COLO 205
SK-MEL-5 = system: SK-MEL-5
HT-29 = system: HT-29
HCC 2998 = system: HCC 2998
HCT-15 = system: HCT-15
M14 = system: M14
NCI-H226 = system: NCI-H226
TK-10 = system: TK-10
ACHN = system: ACHN
NCI-H460 = system: NCI-H460
HOP-92 = system: HOP-92
SN12C = system: SN12C
LOX IMVI = system: LOX IMVI
MDA-N = system: MDA-N
RXF 393 = system: RXF 393
SK-MEL-28 = system: SK-MEL-28
OVCAR-8 = system: OVCAR-8
A549 = system: A549
BT-549 = system: BT-549
KM12 = system: KM12
MOLT-4 = system: MOLT-4

Cc1ccc(S(=O)(=O)Oc2cc(S(=O)(=O)O)cc3cc(S(=O)(=O)O)cc(N)c23)cc1
GI50 (Malme-3M): > 100 µM (inactive)
GI50 (SF-295): > 100 µM (inactive)
GI50 (CAKI-1): > 100 µM (inactive)
GI50 (NCI-H23): > 100 µM (inactive)
GI50 (HOP-62): > 100 µM (inactive)
GI50 (UACC-257): > 100 µM (inactive)
GI50 (PC-3): > 100 µM (inactive)
GI50 (SW-620): > 100 µM (inactive)
GI50 (MDA-MB-231): > 100 µM (inactive)
GI50 (SF-268): > 100 µM (inactive)
GI50 (SK-MEL-2): > 100 µM (inactive)
GI50 (786-0): > 100 µM (inactive)
GI50 (IGROV-1): > 100 µM (inactive)
GI50 (OVCAR-3): > 100 µM (inactive)
GI50 (HL-60): > 100 µM (inactive)
GI50 (SNB-19): > 100 µM (inactive)
GI50 (Hs-578T): > 100 µM (inactive)
GI50 (HCT-116): > 100 µM (inactive)
GI50 (UACC-62): > 100 µM (inactive)
GI50 (OVCAR-4): > 100 µM (inactive)
GI50 (K562): > 100 µM (inactive)
GI50 (EKVX): > 100 µM (inactive)
GI50 (MCF7): > 100 µM (inactive)
GI50 (MDA-MB-435): > 100 µM (inactive)
GI50 (OVCAR-5): > 100 µM (inactive)
GI50 (NCI/ADR-RES): > 100 µM (inactive)
GI50 (DU-145): > 100 µM (inactive)
GI50 (SF-539): > 100 µM (inactive)
GI50 (T47D): > 100 µM (inactive)
GI50 (RPMI-8226): > 100 µM (inactive)
GI50 (A498): > 100 µM (inactive)
GI50 (U-251): > 100 µM (inactive)
GI50 (SR): > 100 µM (inactive)
GI50 (CCRF-CEM): > 100 µM (inactive)
GI50 (UO-31): 41.1 µM (inactive)
GI50 (SK-OV-3): > 100 µM (inactive)
GI50 (SNB-75): > 100 µM (inactive)
GI50 (NCI-H522): > 100 µM (inactive)
GI50 (COLO 205): > 100 µM (inactive)
GI50 (SK-MEL-5): > 100 µM (inactive)
GI50 (HT-29): > 100 µM (inactive)
GI50 (HCC 2998): > 100 µM (inactive)
GI50 (HCT-15): > 100 µM
GI50 (M14): > 100 µM (inactive)
GI50 (NCI-H226): > 100 µM (inactive)
GI50 (TK-10): > 100 µM (inactive)
GI50 (ACHN): > 100 µM (inactive)
GI50 (NCI-H460): > 100 µM (inactive)
GI50 (HOP-92): 22 µM (inactive)
GI50 (SN12C): > 100 µM (inactive)
GI50 (LOX IMVI): > 100 µM (inactive)
GI50 (MDA-N): > 100 µM (inactive)
GI50 (RXF 393): > 100 µM (inactive)
GI50 (SK-MEL-28): > 100 µM (inactive)
GI50 (OVCAR-8): > 100 µM (inactive)
GI50 (A549): > 100 µM (inactive)
GI50 (BT-549): > 100 µM (inactive)
GI50 (KM12): > 100 µM (inactive)

CC(C)(Cc1ccccc1)NC1=NCCO1
GI50 (Malme-3M): > 100 µM (inactive)
GI50 (SF-295): > 100 µM (inactive)
GI50 (CAKI-1): > 100 µM (inactive)
GI50 (NCI-H23): > 100 µM (inactive)
GI50 (UACC-257): > 100 µM (inactive)
GI50 (PC-3): > 100 µM (inactive)
GI50 (SW-620): > 100 µM (inactive)
GI50 (MDA-MB-231): > 100 µM (inactive)
GI50 (SK-MEL-2): > 100 µM (inactive)
GI50 (786-0): > 100 µM (inactive)
GI50 (IGROV-1): > 100 µM (inactive)
GI50 (OVCAR-3): > 100 µM (inactive)
GI50 (HL-60): > 100 µM (inactive)
GI50 (SNB-19): > 100 µM (inactive)
GI50 (Hs-578T): 76.4 µM (inactive)
GI50 (HCT-116): > 100 µM (inactive)
GI50 (UACC-62): > 100 µM (inactive)
GI50 (OVCAR-4): > 100 µM (inactive)
GI50 (K562): > 100 µM (inactive)
GI50 (EKVX): > 100 µM (inactive)
GI50 (MCF7): > 100 µM (inactive)
GI50 (MDA-MB-435): > 100 µM (inactive)
GI50 (OVCAR-5): > 100 µM (inactive)
GI50 (NCI/ADR-RES): > 100 µM (inactive)
GI50 (DU-145): > 100 µM (inactive)
GI50 (SF-539): > 100 µM (inactive)
GI50 (T47D): > 10 µM (inactive)
GI50 (RPMI-8226): > 100 µM (inactive)
GI50 (A498): > 100 µM (inactive)
GI50 (U-251): > 100 µM (inactive)
GI50 (SR): > 100 µM (inactive)
GI50 (CCRF-CEM): > 100 µM (inactive)
GI50 (UO-31): > 100 µM (inactive)
GI50 (SK-OV-3): > 100 µM (inactive)
GI50 (SNB-75): 35.2 µM (inactive)
GI50 (NCI-H522): > 100 µM (inactive)
GI50 (COLO 205): > 100 µM (inactive)
GI50 (SK-MEL-5): > 100 µM (inactive)
GI50 (HT-29): > 100 µM (inactive)
GI50 (HCC 2998): > 100 µM (inactive)
GI50 (HCT-15): > 100 µM
GI50 (M14): > 100 µM (inactive)
GI50 (NCI-H226): > 100 µM (inactive)
GI50 (TK-10): > 100 µM (inactive)
GI50 (ACHN): > 100 µM (inactive)
GI50 (NCI-H460): > 100 µM (inactive)
GI50 (HOP-92): > 100 µM (inactive)
GI50 (MOLT-4): > 100 µM (inactive)
GI50 (LOX IMVI): > 100 µM (inactive)
GI50 (MDA-N): > 100 µM (inactive)
GI50 (RXF 393): > 100 µM (inactive)
GI50 (SK-MEL-28): > 100 µM (inactive)
GI50 (OVCAR-8): > 100 µM (inactive)
GI50 (A549): > 100 µM (inactive)
GI50 (BT-549): > 100 µM (inactive)
GI50 (KM12): > 100 µM (inactive)
